Patent US12662498B2 (priority 2017, dated 2026)

Assay: ICH stability study of psilocybin batches (appearance, water content, purity, assay)
[1] = T = 1 month, 2-8° C., listed as 170231
[2] = T = 1 month, 25° C./60% RH, listed as 170231
[3] = T = 1 month, 40° C./75% RH, listed as 170231
[4] = T = 3 months, 2-8° C., listed as 170231
[5] = T = 3 months, 25° C./60% RH, listed as 170231
[6] = T = 3 months, 40° C./75% RH, listed as 170231

For `CN(C)CCc1c[nH]c2cccc(OP(=O)(O)O)c12` [Batch 170231], which “Assay by HPLC (on a dry basis)” value (T = 0) is on record?
The value was 98.65% ^w/w % w/w.

What about the “Impurities LT 0.05%” value (T = 0) of the same compound?
Its value is 0.22%.

What about the “Impurities by HPLC: RRT0.69” value (T = 0) of the same compound?
The value was “LT 0.05%”.

What about the “Impurities by HPLC: RRT 1.49” value (T = 0) of the same compound?
Its value is 0.06%.

What about the “Impurities by HPLC: RRT 1.62 (Psilocin)” value (T = 0) of the same compound?
The value was 0.39%.

What about the “Impurities by HPLC: RRT 1.70” value (T = 0) of the same compound?
Its value is 0.05%.

What about the “Impurity at RRT 1.89” value (T = 0) of the same compound?
Its value is “LT 0.05%”.

And the “Impurity at RRT 2.45” value (T = 0)?
Its value is “LT 0.05%”.

What about the “Chemical Purity By HPLC” value (T = 0, listed as 170231) of the same compound?
Its value is 99.28%.

What about the “Total Impurities” value (T = 0, listed as 170231) of the same compound?
Its value is 0.72%.

What about the “Water content by loss on drying” value (T = 0, listed as 170231) of the same compound?
The value was 0.32% ^w/w % w/w.

What about the “Assay by HPLC (on a dry basis)” value (T = 1 month, 2-8° C.) of the same compound?
Its value is 98.76% ^w/w % w/w.

What about the “Impurities LT 0.05%” value (T = 1 month, 2-8° C.) of the same compound?
Its value is 0.39%.

And the “Impurities by HPLC: RRT 1.49” value (T = 1 month, 2-8° C.)?
The value was 0.05%.

What about the “Impurities by HPLC: RRT 1.62 (Psilocin)” value (T = 1 month, 2-8° C.) of the same compound?
Its value is 0.36%.

What about the “Impurities by HPLC: RRT 1.70” value (T = 1 month, 2-8° C.) of the same compound?
The value was “LT 0.05%”.

And the “Impurity at RRT 1.89” value (T = 1 month, 2-8° C.)?
The value was “LT 0.05%”.

And the “Impurity at RRT 2.45” value (T = 1 month, 2-8° C.)?
Its value is “LT 0.05%”.

And the “Chemical Purity By HPLC” value [1]?
Its value is 99.20%.

And the “Total Impurities” value [1]?
The value was 0.80%.

What about the “Water content by loss on drying” value [1] of the same compound?
Its value is 0.27% ^w/w % w/w.

And the “Assay by HPLC (on a dry basis)” value (T = 1 month, 25° C./60% RH)?
The value was 97.98% ^w/w % w/w.

And the “Impurities LT 0.05%” value (T = 1 month, 25° C./60% RH)?
The value was 0.42%.

What about the “Impurities by HPLC: RRT 1.49” value (T = 1 month, 25° C./60% RH) of the same compound?
The value was 0.05%.

And the “Impurities by HPLC: RRT 1.62 (Psilocin)” value (T = 1 month, 25° C./60% RH)?
Its value is 0.37%.

What about the “Impurities by HPLC: RRT 1.70” value (T = 1 month, 25° C./60% RH) of the same compound?
Its value is “LT 0.05%”.

What about the “Impurity at RRT 1.89” value (T = 1 month, 25° C./60% RH) of the same compound?
The value was “LT 0.05%”.

What about the “Impurity at RRT 2.45” value (T = 1 month, 25° C./60% RH) of the same compound?
The value was “LT 0.05%”.

What about the “Chemical Purity By HPLC” value [2] of the same compound?
Its value is 99.16%.

What about the “Total Impurities” value [2] of the same compound?
The value was 0.84%.

And the “Water content by loss on drying” value [2]?
Its value is 0.17% ^w/w % w/w.

What about the “Assay by HPLC (on a dry basis)” value (T = 1 month, 40° C./75% RH) of the same compound?
Its value is 98.52% ^w/w % w/w.

And the “Impurities LT 0.05%” value (T = 1 month, 40° C./75% RH)?
The value was 0.41%.

What about the “Impurities by HPLC: RRT 1.49” value (T = 1 month, 40° C./75% RH) of the same compound?
Its value is 0.06%.

And the “Impurities by HPLC: RRT 1.62 (Psilocin)” value (T = 1 month, 40° C./75% RH)?
Its value is 0.36%.

And the “Impurities by HPLC: RRT 1.70” value (T = 1 month, 40° C./75% RH)?
The value was “LT 0.05%”.

What about the “Impurity at RRT 1.89” value (T = 1 month, 40° C./75% RH) of the same compound?
Its value is “LT 0.05%”.

And the “Impurity at RRT 2.45” value (T = 1 month, 40° C./75% RH)?
Its value is “LT 0.05%”.

What about the “Chemical Purity By HPLC” value [3] of the same compound?
Its value is 99.17%.

And the “Total Impurities” value [3]?
Its value is 0.83%.

What about the “Water content by loss on drying” value [3] of the same compound?
Its value is 0.19% ^w/w % w/w.

What about the “Assay by HPLC (on a dry basis)” value (T = 3 months, 2-8° C.) of the same compound?
The value was 98.45% ^w/w % w/w.

And the “Impurities LT 0.05%” value (T = 3 months, 2-8° C.)?
The value was 0.22%.

What about the “Impurities by HPLC: RRT0.69” value (T = 3 months, 2-8° C.) of the same compound?
Its value is 0.05%.

And the “Impurities by HPLC: RRT 1.49” value (T = 3 months, 2-8° C.)?
Its value is 0.05%.

What about the “Impurities by HPLC: RRT 1.62 (Psilocin)” value (T = 3 months, 2-8° C.) of the same compound?
The value was 0.37%.

What about the “Impurities by HPLC: RRT 1.70” value (T = 3 months, 2-8° C.) of the same compound?
Its value is “LT 0.05%”.

What about the “Impurity at RRT 1.89” value (T = 3 months, 2-8° C.) of the same compound?
The value was “LT 0.05%”.

What about the “Impurity at RRT 2.45” value (T = 3 months, 2-8° C.) of the same compound?
The value was “LT 0.05%”.

What about the “Chemical Purity By HPLC” value [4] of the same compound?
Its value is 99.30%.

And the “Total Impurities” value [4]?
Its value is 0.70%.

And the “Water content by loss on drying” value [4]?
Its value is 0.17% ^w/w % w/w.

And the “Assay by HPLC (on a dry basis)” value (T = 3 months, 25° C./60% RH)?
The value was 99.46% ^w/w % w/w.

And the “Impurities LT 0.05%” value (T = 3 months, 25° C./60% RH)?
Its value is 0.27%.

And the “Impurities by HPLC: RRT0.69” value (T = 3 months, 25° C./60% RH)?
Its value is “LT 0.05%”.

And the “Impurities by HPLC: RRT 1.49” value (T = 3 months, 25° C./60% RH)?
Its value is 0.05%.

What about the “Impurities by HPLC: RRT 1.62 (Psilocin)” value (T = 3 months, 25° C./60% RH) of the same compound?
Its value is 0.36%.

What about the “Impurities by HPLC: RRT 1.70” value (T = 3 months, 25° C./60% RH) of the same compound?
Its value is “LT 0.05%”.

What about the “Impurity at RRT 1.89” value (T = 3 months, 25° C./60% RH) of the same compound?
The value was “LT 0.05%”.

And the “Impurity at RRT 2.45” value (T = 3 months, 25° C./60% RH)?
Its value is “LT 0.05%”.

What about the “Chemical Purity By HPLC” value [5] of the same compound?
The value was 99.31%.

What about the “Total Impurities” value [5] of the same compound?
Its value is 0.69%.

And the “Water content by loss on drying” value [5]?
Its value is 0.01% ^w/w % w/w.

And the “Assay by HPLC (on a dry basis)” value (T = 3 months, 40° C./75% RH)?
Its value is 98.64% ^w/w % w/w.

And the “Impurities LT 0.05%” value (T = 3 months, 40° C./75% RH)?
The value was 0.34%.

And the “Impurities by HPLC: RRT0.69” value (T = 3 months, 40° C./75% RH)?
Its value is “LT 0.05%”.

What about the “Impurities by HPLC: RRT 1.49” value (T = 3 months, 40° C./75% RH) of the same compound?
Its value is 0.06%.

And the “Impurities by HPLC: RRT 1.62 (Psilocin)” value (T = 3 months, 40° C./75% RH)?
Its value is 0.39%.

And the “Impurities by HPLC: RRT 1.70” value (T = 3 months, 40° C./75% RH)?
The value was “LT 0.05%”.

And the “Impurity at RRT 1.89” value (T = 3 months, 40° C./75% RH)?
Its value is “LT 0.05%”.

And the “Impurity at RRT 2.45” value (T = 3 months, 40° C./75% RH)?
The value was “LT 0.05%”.

And the “Chemical Purity By HPLC” value [6]?
Its value is 99.17%.

What about the “Total Impurities” value [6] of the same compound?
Its value is 0.79%.

What about the “Water content by loss on drying” value [6] of the same compound?
The value was 0.19% ^w/w % w/w.

What about the Appearance (T = 6 months, 2-8° C.) of the same compound?
Its Appearance is “An off white solid”.

What about the “Assay by HPLC (on a dry basis)” value (T = 6 months, 2-8° C.) of the same compound?
Its value is 97.97% ^w/w % w/w.

What about the “Chemical Purity By HPLC” value (T = 6 months, 2-8° C.) of the same compound?
The value was 99.20%.

And the “Impurities LT 0.05%” value (T = 6 months, 2-8° C.)?
Its value is 0.32%.

What about the “Impurities by HPLC: RRT0.69” value (T = 6 months, 2-8° C.) of the same compound?
The value was 0.06%.

And the “Impurities by HPLC: RRT 1.49” value (T = 6 months, 2-8° C.)?
Its value is “LT 0.05%”.
